In one data set the test system is MRSA. Kind of data set: Broth microdilution MIC against MRSA, summarised over the strains tested. Format: cell-based, Staphylococcus aureus. To be noted: for antimicrobial activity against MRSA (in words): strains as named in the sentence; for MIC: Staphylococcus aureus, MRSA, read-out: MIC against MRSA.
Another data set is described as follows: in vitro. To be noted: human, Caco-2.
Data set [1] relates to Caco-2 bilayer.
Another data set relates to MRSA USA300. Kind of data set: Minimum bactericidal concentration.
The subject of data set [2] is murine macrophage (J774) cell line. Kind of data set: MTS cytotoxicity assay.
Data set [3] is described as follows: Kinetic solubility screen in PBS. Format: physicochemical.
A further data set deals with VRSA (VRS2). Kind of data set: Broth microdilution MIC, VRSA VRS2. In kind it is cell-based, Staphylococcus aureus. The note with it: vancomycin-resistant S. aureus VRS2.
In data set [4] the test system is Caco-2 bilayer. Kind of data set: Caco-2 permeability assay.
Setting [5] is: 64 µM / up to a concentration of 64 µM.
The mark [6] stands for this setting: 128 µM (data not presented), all toxic, exception = not toxic.

Converted amounts (≈) assume the structure as drawn. Read-outs that look alike come from different tables or passages of the source.

For `[C-]#[N+]c1ccccc1C=C1CCCCC1` [Compound 26], in the data set on MRSA, the “antimicrobial activity against MRSA (in words)” value (from here on “antimicrobial activity”) is “inactive against several MRSA isolates”. Consider `CNC(=C[N+](=O)[O-])NCCSCc1ccc(CN(C)C)o1` [Ranitidine], for which the Papp A→B in “in vitro” turned out to be 0.23 ×10⁻⁶ cm/s. Further, the “Permeability Analysis” value with Caco-2 bilayer [1] is on record as “Low permeability”. Turning to `[C-]#[N+]c1ccccc1/C=C(\CC)c1ccccc1` [Compound 1], in the data set on MRSA, the MIC lay in the range of 8 to 64 µM (≈ 1.87 to 14.9 µg/mL). For the same compound, the bacteriostatic or bactericidal result in the data set on MRSA USA300 was “bacteriostatic”. On to `[C-]#[N+]c1ccccc1/C=C(\CC)c1cccc(C(F)(F)F)c1` [Compound 12], for which the “toxicity to J774 cells” value in data set [2] (setting [5]) is on record as “toxic”. `[C-]#[N+]c1ccccc1/C=C/c1ccc(CCCC)cc1` [Compound 24]: the “antimicrobial activity” value in the data set on MRSA is listed as “lacked activity against most MRSA strains tested”. On the same count and under the same terms, next, `[C-]#[N+]c1ccc(C)cc1-c1ccc(C(C)(C)C)cc1` [Compound 49]: “loss in antimicrobial activity”; `[C-]#[N+]c1ccccc1-c1ccccc1` [Compound 46]: “lacks activity against three strains of MRSA”. With `[C-]#[N+]c1ccccc1/C=C/c1cccnc1` [Compound 30], the “toxicity to J774 cells” value in data set [2] (setting [6]) was “exception”. In addition, the “antimicrobial activity” value with MRSA is “reduced antimicrobial activities”.

As to `[C-]#[N+]c1ccccc1CCc1ccccc1` [Compound 53], the “antimicrobial activity” value with MRSA is reported as “active against several strains”.

With `[C-]#[N+]c1ccccc1/C=C/c1ccccn1` [Compound 27], the “antimicrobial activity” value in the data set with MRSA is listed as “reduced antimicrobial activities”. Take `[C-]#[N+]c1ccccc1/C=C/c1cccc(F)c1` [Compound 19]: in data set [2] (setting [5]), the “toxicity to J774 cells” value is “toxic”. In the case of `[C-]#[N+]c1ccccc1/C=C/c1ccncc1` [Compound 33], in the data set with MRSA, the “antimicrobial activity” value is reported as “reduced antimicrobial activities”. Take `[C-]#[N+]c1ccccc1/C=C/c1cccc(OC)c1` [Compound 15]: the “toxicity to J774 cells” value in data set [2] (setting [6]) is “exception”. Turning to `[C-]#[N+]c1ccc(C)cc1-c1ccc(C(F)(F)F)cc1` [Compound 50], the “antimicrobial activity” value in the data set with MRSA is “loss in antimicrobial activity”. On to `[C-]#[N+]c1ccc(/C=C/c2ccccc2)cc1` [Compound 37], for which the “toxicity to J774 cells” value in data set [2] (setting [6]) is given as “exception”. `COC(=O)[C@H]1[C@H]2C[C@@H]3c4[nH]c5cc(OC)ccc5c4CCN3C[C@H]2C[C@@H](OC(=O)c2cc(OC)c(OC)c(OC)c2)[C@@H]1OC` [Reserpine, reference compound]: in data set [3], the “Solubility Analysis” value was “Low solubility”.

As for `[C-]#[N+]c1ccccc1CP(=O)(OCC)OCC` [Compound 4a], the “antimicrobial activity” value in the data set with MRSA was “complete loss of activity”. Further, the “Minimum inhibitory concentration (MIC), VRSA2 VRS 2” value with VRSA (VRS2) is more than 128 µM. `[C-]#[N+]c1ccccc1/C=C/c1ccccc1` [Compound 13]: the “Solubility Analysis” value in data set [3] was “Low solubility”. For the same compound, the “toxicity to J774 cells” value in data set [2] (setting [5]) is recorded as “neither compound was toxic”. In addition, the “Permeability Analysis” value in the data set on Caco-2 bilayer [4] is reported as “Not permeable”. Moreover, the MIC with MRSA was not below 2 µM. Besides, the “reduction in the MIC against MRSA” value in the data set on MRSA (relative to compound 1 (removal of the ethyl group)) is on record as “two-to-eight fold”. In the case of `[C-]#[N+]c1ccccc1/C=C/c1ccc(C)cc1` [Compound 23], in the data set on MRSA, the MIC fell in the range of 4 to 64 µM (≈ 0.877 to 14 µg/mL) and the “antimicrobial activity” value is reported as “active against all MRSA strains tested”.

Take `CC/C(=C\c1ccccc1)c1ccccc1` [Compound 42]: in the data set with MRSA, the “antimicrobial activity” value is “complete loss in the anti-MRSA activity”. `[C-]#[N+]c1ccccc1/C=C/c1ccc([N+](=O)[O-])cc1` [Compound 25]: the “toxicity to J774 cells” value in data set [2] (32 µM, all not toxic, exception = toxic) is “exception”; in data set [2] (setting [5]) it was “toxic”. On to `[C-]#[N+]c1ccccc1/C=C(\CC)c1ccc(OC)cc1` [Compound 11], for which the “toxicity to J774 cells” value in data set [2] (setting [5]) is on record as “toxic”. For the compound `N#Cc1ccccc1/C=C/c1ccccc1` [Compound 43], the “antimicrobial activity” value with MRSA is on record as “complete loss of antimicrobial activity”.

(Values after publication PMC4686872 (European journal of medicinal chemistry, 2015).)
